According to patent publication US5006531A, “5,6-dihydro(1H-indolo(3,2-C)quinoline-6,4'-piperidines) and related compounds which are useful for treating pain, psychosis or convulsions” (Hoechst-Roussel Pharmaceuticals Inc., priority 1989, dated 1991):
Structures can show the parent of a compound that is named as a salt.

Tests used:
Assay type in all cases: in vivo
[1] = tested on: mice; experiment: 2-phenyl-1,4-benzoquinone-induced writhing (PQW) test in mice (analgesic activity); conditions: for PQW: s.c.
Description: Compounds I of the present invention are useful as analgesic agents due to their ability to alleviate pain in mammals. […] Exptl. Biol. Med., 95, 729 (1957)].

[2] = tested on: male mice; experiment: supramaximal electroshock (SES) assay in the mouse (anticonvulsant activity)
Protocol: Compounds I of the present invention are also useful as anticonvulsant agents due to their anticonvulsant activity in mammals. Anticonvulsant activity is measured in the mouse using the supramaximal electroshock (SES) assay described in Arch. Int. Pharmacodyn. 92: 97-107, 1952. In this procedure groups of male mice, 18-30 grams, are used. Drugs are prepared using distilled water and, if insoluble, a surfactant is added. Control animals receive vehicle. Drugs are routinely administered intraperitoneally (i.p.). The dosage volume is 10 ml/kg. A primary screen is given a 30 minute pretreat. The animal's eyes are placed across the output terminals of an A.C. shocker that delivers 206 volts rms for 300 msec. Electrode paste coats the animal's eyes at the point of contact with the terminals. […] Protection is expressed as normalized percent inhibition relative to vehicle control.
A time response is carried out using six animals/group. Animals are tested at 30, 60 and 120 minutes postdrug. Additional time periods are tested if indicated by previous tests. When the peak activity time has been determined, a dose response is initiated using 10 animals/group at that time period. The ED50 and 95% confidence interval are calculated by computer probit analysis.
Test results of supramaximal electroshock for a compound of this invention along with a result for a reference compound are presented in Table 3.

[3] = tested on: CK-1 male mice; experiment: climbing mice assay (apomorphine-induced climbing, antipsychotic activity); conditions: Mus musculus, apomorphine 1.5 mg/kg s.c.
Protocol: Antipsychotic activity is determined in the climbing mice assay by methods similar to those described by P. Protais, et al., Psychopharmacol., 50, 1 (1976) and B. Costall, Eur. J. Pharmacol., 50, 39, (1978).
The subject CK-1 male mice (23-27 grams) are group-housed under standard laboratory conditions. The mice are individually placed in wire mesh stick cages (4"×4" by 10") and are allowed one hour for adaptation and exploration of the new environment. Then apomorphine is injected subcutaneously at 1.5 mg/kg, a dose causing climbing in all subjects for 30 minutes. Compounds to be tested for antipsychotic activity are injected intraperitoneally 30 minutes prior to the apomorphine challenge at a screening dose of 10 mg/kg.
For evaluation of climbing, 3 readings are taken at 10, 20 and 30 minutes after apomorphine administration according to the following scale:
4 paws on bottom (no climbing)
2 paws on the wall (rearing)
4 paws on the wall (full climb)
Mice consistently climbing before the injection of apomorphine are discarded.
With full-developed apomorphine climbing, the animals are hanging onto the cage walls, rather motionless, over long periods of time. By constrast, climbs due to mere motor stimulation usually last only a few seconds.
The climbing scores are individually totaled (maximum score: 6 per mouse over 3 readings) and the total score of the control group (vehicle intraperitoneally; apomorphine subcutaneously) is set to 100%. ED50 values with 95% confidence limits, calculated by a linear regression analysis, of some of the compounds of this invention are presented in Table 2.
Results of the climbing mice assay for some of the compounds of this invention along with a result for a reference compounds are presented in Table 2.

[4] = ip, 30 minutes prior to apomorphine challenge

CC(=O)N1CCC2(CC1)NC1=CC=CCC1=C1N=c3ccccc3=C12 [1'-Acetyl-5,6-dihydrospiro[1H-indolo[3,2-c]quinoline-6,4'-piperidine]]
PQW ([1]; at 20 mg/kg): -66%

CC(C)=CCN1CCC2(C)c3cc(O)ccc3CC1C2C (stereo not drawn) [Pentazocine, reference compound]
PQW ([1]; at 1.3 mg/kg, reference compound): -50%

CCN1CCC2(CC1)NC1=CC=CCC1=C1N=c3ccccc3=C12 [1'-Ethyl-5,6-dihydrospiro[1H-indolo[3,2-c]quinoline-6,4'-piperidine]]
supramaximal electroshock, normalized percent inhibition relative to vehicle control ([2]; at 60 mg/kg, i.p.): -80%

CN1CCC2(CC1)c1c([nH]c3ccccc13)-c1ccccc1N2C [1',5-Dimethyl-5,6-dihydrospiro[1H-indolo[3,2-c]quinoline-6,4'-piperidine]fumarate, hemiethanolate]
ED50 ([1]; Mus musculus, sc): 10.3 mg/kg | ED50 [3, 4]: 19.8 mg/kg

CN1CCC2(CC1)c1c([nH]c3ccccc13)-c1ccc(Cl)cc1N2C [3-Chloro-5,1'-dimethyl-5,6-dihydrospiro[1H-indolo-[3,2-c]quinoline-6,4'-piperidine]dihydrochloride]
ED50 [3, 4]: 13.2 mg/kg

c1ccc(CCN2CCC3(CC2)Nc2ccccc2-c2[nH]c4ccccc4c23)cc1 [1'-Phenethyl-5,6-dihydrospiro[1H-indolo[3,2-c]quinoline-6,4'-piperidine]fumarate]
PQW ([1]; at 5 mg/kg): -55%

CNC1=Nc2ccc(Cl)cc2C(c2ccccc2)=[N+]([O-])C1 [Chlorodiazepoxide, reference compound]
ED50 ([2]; ip, reference compound): 8 mg/kg

CN1CCN(C2=Nc3cc(Cl)ccc3Nc3ccccc32)CC1 [Clozapine, reference compound]
ED50 ([3]; sc, reference compounds): 8.1 mg/kg
